Measured values: patent US20120252852A1 (SANOFI, priority 2011, published 2012)

Legend:
[1] = Level of impurities in dependency on pH and repeated autoclaving (1 mg/mL Otamixaban, citrate composition of Example 5, HPLC); format: physicochemical
Experimental: The appropriate pH value was adjusted by using sodium hydroxide solution (1 M sodium hydroxide) or diluted hydrochloric acid (1 M hydrochloric acid). […] [table] […] The mobile phase was filtered through a 1.5 μm filter. Typically, add 500 mL of mobile phase A to 500 mL of acetonitrile. Mix and degas. [table] [table]

[2] = Level of impurities in dependency on citric acid (22.8 mmol/L) and storage time (1 mg/mL, autoclaved once, 40° C. and 75% RH, HPLC); format: physicochemical
Experimental: The prepared vials were autoclaved once and were stored at 40° C. and 75% RH (relative humidity).

[3] = test system: prothrombin fragments 1+2; conditions: highest dose regimen; versus unfractionated heparin; cited from earlier work
[4] = Level of impurities in dependency on Otamixaban concentration and autoclaving (HPLC); format: physicochemical
Experimental: Liquid pharmaceutical compositions were prepared containing 1, 5 or 50 mg/mL
The appropriate pH value was adjusted by using sodium hydroxide solution (1 M sodium hydroxide) or diluted hydrochloric acid (1 M hydrochloric acid).

[5] = repeated autoclaving, pH 2.5 to 4.7

## COC(=O)[C@H](Cc1cccc(C(=N)N)c1)[C@@H](C)NC(=O)c1ccc(-c2cc[n+]([O-])cc2)cc1 (mixture of isomers) [Otamixaban, Methyl (2R,3R)-2-{3-[amino(imino)methyl]benzyl}-3-{[4-(1-oxidopyridin-4-yl)benzoyl]amino}butanoate]
[1]; pH 3.5, 1 autoclaving
  Increase of Formula III (carbamoyl-benzyl butyric acid methyl ester): 0.81%
[1]; pH 3.5, 2 autoclaving
  Increase of Formula III (carbamoyl-benzyl butyric acid methyl ester): 1.23%
[1]; pH 3.5, 3 autoclaving
  Increase of Formula III (carbamoyl-benzyl butyric acid methyl ester): 1.65%
[1]; pH 3.7 (first row), 0 autoclaving
  Increase of Formula III (carbamoyl-benzyl butyric acid methyl ester): 0.39%
[1]; pH 3.7 (first row), 1 autoclaving
  Increase of Formula III (carbamoyl-benzyl butyric acid methyl ester): 0.87%
[1]; pH 3.7 (first row), 2 autoclaving
  Increase of Formula III (carbamoyl-benzyl butyric acid methyl ester): 1.33%
[1]; pH 3.7 (first row), 3 autoclaving
  Increase of Formula III (carbamoyl-benzyl butyric acid methyl ester): 1.80%
[1]; pH 3.7 (second row), 0 autoclaving
  Increase of Formula III (carbamoyl-benzyl butyric acid methyl ester): 0.39%
[1]; pH 3.7 (second row), 1 autoclaving
  Increase of Formula III (carbamoyl-benzyl butyric acid methyl ester): 0.84%
[1]; pH 3.7 (second row), 2 autoclaving
  Increase of Formula III (carbamoyl-benzyl butyric acid methyl ester): 1.28%
[1]; pH 3.7 (second row), 3 autoclaving
  Increase of Formula III (carbamoyl-benzyl butyric acid methyl ester): 1.71%
[1]; pH 4.0, 0 autoclaving
  Increase of Formula III (carbamoyl-benzyl butyric acid methyl ester): 0.39%
[1]; pH 4.0, 1 autoclaving
  Increase of Formula III (carbamoyl-benzyl butyric acid methyl ester): 0.95%
[1]; pH 4.0, 2 autoclaving
  Increase of Formula III (carbamoyl-benzyl butyric acid methyl ester): 1.48%
[1]; pH 4.0, 3 autoclaving
  Increase of Formula III (carbamoyl-benzyl butyric acid methyl ester): 2.02%
[1]; pH 4.2, 0 autoclaving
  Increase of Formula III (carbamoyl-benzyl butyric acid methyl ester): 0.39%
[1]; pH 4.2, 1 autoclaving
  Increase of Formula III (carbamoyl-benzyl butyric acid methyl ester): 1.08%
[1]; pH 4.2, 2 autoclaving
  Increase of Formula III (carbamoyl-benzyl butyric acid methyl ester): 1.75%
[1]; pH 4.2, 3 autoclaving
  Increase of Formula III (carbamoyl-benzyl butyric acid methyl ester): 2.42%
[1]; pH 4.5, 0 autoclaving
  Increase of Formula III (carbamoyl-benzyl butyric acid methyl ester): 0.39%
[1]; pH 4.5, 1 autoclaving
  Increase of Formula III (carbamoyl-benzyl butyric acid methyl ester): 1.40%
[1]; pH 4.5, 2 autoclaving
  Increase of Formula III (carbamoyl-benzyl butyric acid methyl ester): 2.37%
[1]; pH 4.5, 3 autoclaving
  Increase of Formula III (carbamoyl-benzyl butyric acid methyl ester): 3.36%
[1]; pH 4.7, 0 autoclaving
  Increase of Formula III (carbamoyl-benzyl butyric acid methyl ester): 0.39%
[1]; pH 4.7, 1 autoclaving
  Increase of Formula III (carbamoyl-benzyl butyric acid methyl ester): 1.84%
[1]; pH 4.7, 2 autoclaving
  Increase of Formula III (carbamoyl-benzyl butyric acid methyl ester): 3.20%
[1]; pH 4.7, 3 autoclaving
  Increase of Formula III (carbamoyl-benzyl butyric acid methyl ester): 4.58%
[1]; [5]
  Levels of Formula II (carbamimidoyl acid) versus pH: minimum at pH 4
  Levels of Formula III (carbamoyl methyl ester) versus pH: lowest at the lowest pH
[2]; pH 3.0/3.1 (start/1 month), 1 month
  Total impurities: 1.33%
[2]; pH 3.0/3.1 (start/1 month), start
  Total impurities: 0.87%
[2]; pH 3.6/3.6 (start/1 month), 1 month
  Total impurities: 1.06%
[2]; pH 3.6/3.6 (start/1 month), start
  Total impurities: 0.83%
[2]; pH 4.0/4.1 (start/1 month), 1 month
  Total impurities: 1.17%
[2]; pH 4.0/4.1 (start/1 month), start
  Total impurities: 0.98%
[2]; pH 4.6/4.6 (start/1 month), 1 month
  Total impurities: 1.75%
[2]; pH 4.6/4.6 (start/1 month), start
  Total impurities: 1.51%
[2]; pH 5.1/5.1 (start/1 month), 1 month
  Total impurities: 3.80%
[2]; pH 5.1/5.1 (start/1 month), start
  Total impurities: 3.57%
[2]; pH 6.1/6.1 (start/1 month), 1 month
  Total impurities: 28.16%
[2]; pH 6.1/6.1 (start/1 month), start
  Total impurities: 27.12%
[3]
  Reduction of prothrombin fragments 1+2: reduced prothrombin fragments 1+2 significantly more than unfractionated heparin
[4]; pH 4.2-4.3, 5 mg/mL, vial 5 mL, 20 min 123° C., 0 autoclaving
  Increase of Formula III (carbamoyl-benzyl butyric acid methyl ester): 0.2%
[4]; pH 4.2-4.3, 5 mg/mL, vial 5 mL, 20 min 123° C., 1 autoclaving
  Increase of Formula III (carbamoyl-benzyl butyric acid methyl ester): 0.9%
[4]; pH 4.2-4.3, 5 mg/mL, vial 5 mL, 20 min 123° C., 2 autoclaving
  Increase of Formula III (carbamoyl-benzyl butyric acid methyl ester): 1.7%
[4]; pH 4.2-4.3, 5 mg/mL, vial 5 mL, 20 min 123° C., 3 autoclaving
  Increase of Formula III (carbamoyl-benzyl butyric acid methyl ester): 2.5%
[4]; pH 4.2, 1 mg/mL, vial 50 mL, 20 min […] C., 0 autoclaving
  Increase of Formula III (carbamoyl-benzyl butyric acid methyl ester): 0.4%
[4]; pH 4.2, 1 mg/mL, vial 50 mL, 20 min […] C., 1 autoclaving
  Increase of Formula III (carbamoyl-benzyl butyric acid methyl ester): 1.3%
[4]; pH 4.2, 1 mg/mL, vial 50 mL, 20 min […] C., 2 autoclaving
  Increase of Formula III (carbamoyl-benzyl butyric acid methyl ester): 2.3%
[4]; pH 4.2, 1 mg/mL, vial 50 mL, 25 min 125° C., 0 autoclaving
  Increase of Formula III (carbamoyl-benzyl butyric acid methyl ester): 0.4%
[4]; pH 4.2, 1 mg/mL, vial 50 mL, 25 min 125° C., 1 autoclaving
  Increase of Formula III (carbamoyl-benzyl butyric acid methyl ester): 1.3%
[4]; pH 4.2, 5 mg/mL, vial 5 mL, 20 min 123° C., 0 autoclaving
  Increase of Formula III (carbamoyl-benzyl butyric acid methyl ester): 0.3%
[4]; pH 4.2, 5 mg/mL, vial 5 mL, 20 min 123° C., 1 autoclaving
  Increase of Formula III (carbamoyl-benzyl butyric acid methyl ester): 1.0%
[4]; pH 4.2, 5 mg/mL, vial 5 mL, 20 min 123° C., 2 autoclaving
  Increase of Formula III (carbamoyl-benzyl butyric acid methyl ester): 1.8%
[4]; pH 4.2, 5 mg/mL, vial 5 mL, 20 min 123° C., 3 autoclaving
  Increase of Formula III (carbamoyl-benzyl butyric acid methyl ester): 2.6%
[4]; pH 4.2, 5 mg/mL, vial 50 mL, 25 min 125° C., 0 autoclaving
  Increase of Formula III (carbamoyl-benzyl butyric acid methyl ester): 0.4%
[4]; pH 4.2, 5 mg/mL, vial 50 mL, 25 min 125° C., 1 autoclaving
  Increase of Formula III (carbamoyl-benzyl butyric acid methyl ester): 1.4%
[4]; pH 4.2, 50 mg/mL, vial 5 mL, 20 min 123° C., 0 autoclaving
  Increase of Formula III (carbamoyl-benzyl butyric acid methyl ester): 0.3%
[4]; pH 4.2, 50 mg/mL, vial 5 mL, 20 min 123° C., 1 autoclaving
  Increase of Formula III (carbamoyl-benzyl butyric acid methyl ester): 1.1%
[4]; pH 4.2, 50 mg/mL, vial 5 mL, 20 min 123° C., 2 autoclaving
  Increase of Formula III (carbamoyl-benzyl butyric acid methyl ester): 1.9%
[4]; pH 4.2, 50 mg/mL, vial 5 mL, 20 min 123° C., 3 autoclaving
  Increase of Formula III (carbamoyl-benzyl butyric acid methyl ester): 2.7%
